The results in this text go back to PubChem BioAssay AID651630 (Sanford-Burnham Center for Chemical Genomics, 2012).

The subject of test [1] is DAPI. Put plainly: triacylglycerol accumulation inhibitor potency, dose response, cell-based, panel, Nile Red and DAPI fluorescence, H9c2 (AID 651630).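 Note: cells exposed to compound overnight before fixation and staining.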 Particulars: H9c2 cells, DAPI nuclear fluorescence (cytotoxicity counter-readout), oleic acid.
Test [2] has as its system TAG. Described as above. To be noted: H9c2 cells, Nile Red TAG fluorescence, oleic acid.

Each structure is given as a SMILES string. Activity calls are given as the source filed them.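 Rule for the calls: active = lipid-stain IC50 at or below a set limit, with nuclear-stain toxicity IC50 at least five times higher; inactive = the rest.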

Take `O=[N+]([O-])c1cc(S(=O)(=O)Nc2cccc(Cl)c2)ccc1N/N=C/c1ccc(N2CCOCC2)cc1`: the IC50 cytotoxicity (DAPI nuclear signal decrease) in test [1] (mean of runs) was > 25 µM (inactive); in test [1] (run 1) it was greater than 25 µM; in test [1] (run 2), greater than 25 µM. In addition, the results for the IC50 in test [2] (mean of runs), in test [2] (run 1) and in test [2] (run 2) were 13.6 µM, 12.5 µM and 14.7 µM, respectively.

In the case of `COc1cc(OC)c2c(-c3ccccc3)cc(=O)oc2c1C(CCN1CCCCC1)c1ccc2c(c1)OCO2` (configuration not stated), the IC50 cytotoxicity (DAPI nuclear signal decrease) in test [1] (mean of runs) is > 25 µM (inactive); in test [1] (run 1) it was greater than 25 µM; in test [1] (run 2) it was greater than 25 µM. Also, the IC50 in test [2] (mean of runs) is 22.9 µM (inactive); in test [2] (run 1), 20.9 µM; in test [2] (run 2), 24.9 µM.

For `CC(C)=CCNc1ncnc2c1c(C#N)cn2C1OC(CO)C(O)C1O` (configuration not stated), the IC50 cytotoxicity (DAPI nuclear signal decrease) in test [1] (mean of runs) was > 25 µM (inactive); in test [1] (run 1) it was greater than 25 µM; in test [1] (run 2) it was greater than 25 µM. For the same compound, the IC50 is > 25 µM (inactive) in test [2] (mean of runs), greater than 25 µM in test [2] (run 1) and greater than 25 µM in test [2] (run 2).

`COc1cc(C2C3=C(COC3=O)Oc3cc4c(cc32)OCO4)ccc1O` (configuration not stated): the IC50 cytotoxicity (DAPI nuclear signal decrease) is > 25 µM (inactive) in test [1] (mean of runs), greater than 25 µM in test [1] (run 1) and greater than 25 µM in test [1] (run 2). For the same compound, the IC50 in test [2] (mean of runs) was 15.6 µM (inactive); in test [2] (run 1), 14.9 µM; in test [2] (run 2), 16.2 µM.

With `COc1ccccc1NC(=O)N1CCC(c2nc3cc(C)c(C)cc3[nH]2)CC1`, the IC50 cytotoxicity (DAPI nuclear signal decrease) in test [1] (mean of runs) was > 25 µM (inactive); in test [1] (run 1), greater than 25 µM; in test [1] (run 2) it was greater than 25 µM. The IC50 in test [2] (mean of runs) is > 25 µM (inactive); in test [2] (run 1) it was greater than 25 µM; in test [2] (run 2) it was greater than 25 µM.

Take `Clc1cccc(Nc2nc(-c3ccncc3)cs2)c1`: the results for the IC50 cytotoxicity (DAPI nuclear signal decrease) in test [1] (mean of runs), in test [1] (run 1) and in test [1] (run 2) were > 25 µM (inactive), greater than 25 µM and greater than 25 µM, respectively. In addition, the IC50 in test [2] (mean of runs) was > 25 µM (inactive); in test [2] (run 1), greater than 25 µM; in test [2] (run 2) it was greater than 25 µM.

`CCOCCC(=O)Nc1ccc2c(c1)c(=O)n(C)n2-c1ccc2ccccc2c1`: the IC50 cytotoxicity (DAPI nuclear signal decrease) in test [1] (mean of runs) is > 25 µM (inactive); in test [1] (run 1) it was greater than 25 µM; in test [1] (run 2) it was greater than 25 µM. Moreover, the IC50 was > 25 µM (inactive) in test [2] (mean of runs), greater than 25 µM in test [2] (run 1) and greater than 25 µM in test [2] (run 2).

For `Cc1cc(C)c(NC(=O)CSc2nc3ccc(NC(=O)CSc4nnnn4Cc4ccccc4)cc3s2)c(C)c1`, the IC50 cytotoxicity (DAPI nuclear signal decrease) in test [1] (mean of runs) is > 25 µM (inactive); in test [1] (run 1) it was greater than 25 µM; in test [1] (run 2), greater than 25 µM. For the same compound, the IC50 in test [2] (mean of runs) is > 25 µM (inactive); in test [2] (run 1), greater than 25 µM; in test [2] (run 2), greater than 25 µM.

Consider `COc1ccc(CC(N)c2csc(NC(=O)Nc3ccccc3C(C)C)n2)cc1` (configuration not stated), for which the IC50 cytotoxicity (DAPI nuclear signal decrease) in test [1] (mean of runs) was 21.5 µM (inactive); in test [1] (run 1), 20.3 µM; in test [1] (run 2) it was 22.7 µM. For the same compound, the IC50 in test [2] (mean of runs) is > 25 µM (inactive); in test [2] (run 1), greater than 25 µM; in test [2] (run 2), greater than 25 µM.

As for `CCOC(=O)C(C)Oc1cccc2c(=O)n(CC(=O)NCc3ccc4c(c3)OCO4)ccc12` (configuration not stated), the values for the IC50 cytotoxicity (DAPI nuclear signal decrease) in test [1] (mean of runs), in test [1] (run 1) and in test [1] (run 2) were > 25 µM (inactive), greater than 25 µM and greater than 25 µM, respectively. For the same compound, the values for the IC50 in test [2] (mean of runs), in test [2] (run 1) and in test [2] (run 2) were 18 µM (inactive), 18.2 µM and 17.9 µM, respectively.

For the compound `O=C(Nc1nc(-c2ccccc2)cs1)C1CCCN(S(=O)(=O)c2cccc([N+](=O)[O-])c2)C1` (configuration not stated), the IC50 cytotoxicity (DAPI nuclear signal decrease) in test [1] (mean of runs) is > 25 µM (inactive); in test [1] (run 1) it was greater than 25 µM; in test [1] (run 2), greater than 25 µM. The figures for the IC50 in test [2] (run 1) and in test [2] (run 2) were 22.1 µM and greater than 25 µM, respectively.

With `COc1ccc(Oc2nc(-c3ccccn3)nc3ccccc23)cc1`, the IC50 cytotoxicity (DAPI nuclear signal decrease) in test [1] (mean of runs) was > 25 µM (inactive); in test [1] (run 1), greater than 25 µM; in test [1] (run 2), greater than 25 µM. Also, the IC50 in test [2] (mean of runs) is > 25 µM (inactive); in test [2] (run 1) it was greater than 25 µM; in test [2] (run 2), greater than 25 µM.

As to `Brc1ccc(-c2csc(NNC3=NCCCCC3)n2)cc1`, the IC50 cytotoxicity (DAPI nuclear signal decrease) was 21.6 µM in test [1] (run 1) and greater than 25 µM in test [1] (run 2). For the same compound, the IC50 was 1.85 µM in test [2] (mean of runs), 1.55 µM in test [2] (run 1) and 2.15 µM in test [2] (run 2).

For the compound `COc1cc(NC(=O)Nc2nc(C(N)Cc3ccc(C(F)(F)F)cc3)cs2)cc(OC)c1OC` (configuration not stated), the figures for the IC50 cytotoxicity (DAPI nuclear signal decrease) in test [1] (run 1) and in test [1] (run 2) were 24.9 µM and greater than 25 µM, respectively. Besides, the IC50 is 6.47 µM in test [2] (mean of runs), 7.7 µM in test [2] (run 1) and 5.24 µM in test [2] (run 2).

On to `CCC(=O)Nc1nonc1-c1nc2ccccc2n1Cc1cccc2ccccc12`, for which the results for the IC50 cytotoxicity (DAPI nuclear signal decrease) in test [1] (mean of runs), in test [1] (run 1) and in test [1] (run 2) were > 25 µM (inactive), greater than 25 µM and greater than 25 µM, respectively. For the same compound, the figures for the IC50 in test [2] (mean of runs), in test [2] (run 1) and in test [2] (run 2) were > 25 µM (inactive), greater than 25 µM and greater than 25 µM, respectively.

For `N#CC1=C(N)Oc2cc(Nc3ccccc3)ccc2C1c1ccncc1` (configuration not stated), the IC50 cytotoxicity (DAPI nuclear signal decrease) in test [1] (run 1) was 23.2 µM; in test [1] (run 2), greater than 25 µM. Also, the IC50 in test [2] (run 1) was 19.8 µM; in test [2] (run 2), greater than 25 µM.

Take `c1ccc(OCCNc2nc(NCC3CC3)nc3cc(-c4ccccc4)sc23)cc1`: the IC50 cytotoxicity (DAPI nuclear signal decrease) is > 25 µM (inactive) in test [1] (mean of runs), greater than 25 µM in test [1] (run 1) and greater than 25 µM in test [1] (run 2). Moreover, the IC50 in test [2] (mean of runs) was 12.8 µM; in test [2] (run 1), 12.7 µM; in test [2] (run 2), 12.9 µM.

Take `COCCNc1nc(NCc2ccc(NC(C)=O)cc2)c2sc(-c3ccccc3)cc2n1`: the values for the IC50 cytotoxicity (DAPI nuclear signal decrease) in test [1] (run 1) and in test [1] (run 2) were 19.1 µM and greater than 25 µM, respectively. The IC50 was > 25 µM (inactive) in test [2] (mean of runs), greater than 25 µM in test [2] (run 1) and greater than 25 µM in test [2] (run 2).

In the case of `COc1ccc(NC(=O)C2(C)Cc3c(-c4cccc(C(N)=O)c4)ccnc3O2)cn1` (configuration not stated), the IC50 cytotoxicity (DAPI nuclear signal decrease) was > 25 µM (inactive) in test [1] (mean of runs), greater than 25 µM in test [1] (run 1) and greater than 25 µM in test [1] (run 2). The values for the IC50 in test [2] (mean of runs), in test [2] (run 1) and in test [2] (run 2) were 18.5 µM (inactive), 18 µM and 18.9 µM, respectively.

For `COc1cc(CC(=O)OCC(=O)c2ccc3c(c2)OCCO3)cc(OC)c1OC`, the figures for the IC50 cytotoxicity (DAPI nuclear signal decrease) in test [1] (run 1) and in test [1] (run 2) were 2.3 µM and greater than 25 µM, respectively. Moreover, the IC50 is 17.1 µM in test [2] (run 1) and greater than 25 µM in test [2] (run 2).

On to `C=CCC[C@H](Cc1ccc(F)cc1)C(=O)OC[C@@H](NC(=O)[C@@H](CC=C)CC(=O)N(CCO)Cc1ccccc1)C(C)(C)C`, for which the IC50 cytotoxicity (DAPI nuclear signal decrease) in test [1] (run 1) and in test [1] (run 2) was greater than 25 µM in each case. The IC50 is 2.94 µM in test [2] (mean of runs), 2.57 µM in test [2] (run 1) and 3.32 µM in test [2] (run 2).

Regarding `CCCCSc1nc2ccc(Nc3nc(N4CCOCC4)nc(N4CCOCC4)n3)cc2s1`, the IC50 cytotoxicity (DAPI nuclear signal decrease) in test [1] (run 1) and in test [1] (run 2) was greater than 25 µM each time. Further, the IC50 in test [2] (mean of runs) was 4.78 µM; in test [2] (run 1) it was 4.98 µM; in test [2] (run 2), 4.59 µM.

For `COCCN(Cc1ccccc1)C(=O)C1CCN(C(=O)Nc2ccccc2)CC1`, the IC50 cytotoxicity (DAPI nuclear signal decrease) is > 25 µM (inactive) in test [1] (mean of runs), greater than 25 µM in test [1] (run 1) and greater than 25 µM in test [1] (run 2). In addition, the IC50 is > 25 µM (inactive) in test [2] (mean of runs), greater than 25 µM in test [2] (run 1) and greater than 25 µM in test [2] (run 2).

On to `Cc1ccc(NC(=O)c2nc[nH]c2C(=O)NCCCCNC(=O)c2[nH]cnc2C(=O)Nc2ccc(C)cc2)cc1`, for which the IC50 cytotoxicity (DAPI nuclear signal decrease) in test [1] (mean of runs) is > 25 µM (inactive); in test [1] (run 1) it was greater than 25 µM; in test [1] (run 2) it was greater than 25 µM. The IC50 in test [2] (mean of runs) was 5.46 µM; in test [2] (run 1), 6.27 µM; in test [2] (run 2), 4.66 µM.

`COc1cc(OC)cc(C(=O)N2CC(=O)Nc3ccccc32)c1`: the IC50 cytotoxicity (DAPI nuclear signal decrease) in test [1] (mean of runs) is > 25 µM (inactive); in test [1] (run 1) it was greater than 25 µM; in test [1] (run 2) it was greater than 25 µM. Further, the IC50 in test [2] (mean of runs) was > 25 µM (inactive); in test [2] (run 1), greater than 25 µM; in test [2] (run 2), greater than 25 µM.

As for `CCC(C)Nc1nc(-c2cccc(OC)c2O)nc2ccccc12` (configuration not stated), the values for the IC50 cytotoxicity (DAPI nuclear signal decrease) in test [1] (mean of runs), in test [1] (run 1) and in test [1] (run 2) were > 25 µM (inactive), greater than 25 µM and greater than 25 µM, respectively. Further, the IC50 in test [2] (mean of runs) was > 25 µM (inactive); in test [2] (run 1), greater than 25 µM; in test [2] (run 2), greater than 25 µM.

As to `CNC(=S)NN=C(C)CCCC(C)=NNC(=S)NC`, the IC50 cytotoxicity (DAPI nuclear signal decrease) in test [1] (run 1) was 11.3 µM; in test [1] (run 2) it was greater than 25 µM. Also, the results for the IC50 in test [2] (mean of runs), in test [2] (run 1) and in test [2] (run 2) were > 25 µM (inactive), greater than 25 µM and greater than 25 µM, respectively.

Take `COc1cc(/C=C/CN2CCC(C(=O)NC(c3ccc(F)cc3)c3ccc4ccccc4n3)CC2)ccc1OC(C)=O` (configuration not stated): the IC50 cytotoxicity (DAPI nuclear signal decrease) in test [1] (mean of runs) was > 25 µM (inactive); in test [1] (run 1), greater than 25 µM; in test [1] (run 2), greater than 25 µM. Besides, the values for the IC50 in test [2] (mean of runs), in test [2] (run 1) and in test [2] (run 2) were 11.6 µM, 13.3 µM and 9.99 µM, respectively.
